Data on eight compounds can be found in ChEMBL document CHEMBL1128422 (J Med Chem, 1995).

The species entered for the test is Oryctolagus cuniculus. Briefly: Ability to stimulate contraction of the rabbit iris sphincter smooth muscle using smooth muscle contraction assay. The test is classed as functional. The note with it: Muscle tissue.

Compound `CSCC[C@H](NC(=O)[C@H](CC(C)C)NC(=O)CNC(=O)[C@@H](NC(=O)[C@@H](NC(=O)[C@H](CCC(N)=O)NC(=O)[C@H](CCC(N)=O)NC(=O)[C@@H]1CCCN1C(=O)[C@H](CCCCN)NC(=O)[C@@H]1CCCN1C(=O)[C@@H](N)CCCN=C(N)N)[C@H](C)c1ccccc1)[C@@H](C)c1ccccc1)C(N)=O` gave an EC50 of 0.28 nM.

For `CSCC[C@H](NC(=O)[C@H](CC(C)C)NC(=O)CNC(=O)[C@@H](NC(=O)[C@@H](NC(=O)[C@H](CCC(N)=O)NC(=O)[C@H](CCC(N)=O)NC(=O)[C@@H]1CCCN1C(=O)[C@H](CCCCN)NC(=O)[C@@H]1CCCN1C(=O)[C@@H](N)CCCN=C(N)N)[C@@H](C)c1ccccc1)[C@H](C)c1ccccc1)C(N)=O`, the midpoint of the response, the EC50, lay at 0.58 nM.

Take `CSCC[C@H](NC(=O)[C@H](CC(C)C)NC(=O)CNC(=O)[C@H](Cc1ccccc1)NC(=O)[C@@H](NC(=O)[C@H](CCC(N)=O)NC(=O)[C@H](CCC(N)=O)NC(=O)[C@@H]1CCCN1C(=O)[C@H](CCCCN)NC(=O)[C@@H]1CCCN1C(=O)[C@@H](N)CCCN=C(N)N)[C@@H](C)c1ccccc1)C(N)=O`: the EC50 was determined as 0.59 nM. The EC50 values of the last two compounds are within 1.5-fold of each other.

As for `CSCC[C@H](NC(=O)[C@H](CC(C)C)NC(=O)CNC(=O)[C@@H](NC(=O)[C@H](Cc1ccccc1)NC(=O)[C@H](CCC(N)=O)NC(=O)[C@H](CCC(N)=O)NC(=O)[C@@H]1CCCN1C(=O)[C@H](CCCCN)NC(=O)[C@@H]1CCCN1C(=O)[C@@H](N)CCCN=C(N)N)[C@H](C)c1ccccc1)C(N)=O`, the EC50 is 5.76 nM.

The compound `CSCC[C@H](NC(=O)[C@H](CC(C)C)NC(=O)CNC(=O)[C@H](Cc1ccccc1)NC(=O)[C@@H](NC(=O)[C@H](CCC(N)=O)NC(=O)[C@H](CCC(N)=O)NC(=O)[C@@H]1CCCN1C(=O)[C@H](CCCCN)NC(=O)[C@@H]1CCCN1C(=O)[C@@H](N)CCCN=C(N)N)[C@H](C)c1ccccc1)C(N)=O` had an EC50 of 0.54 nM. Against the preceding compound, the EC50 is about 11-fold lower.

`CSCC[C@H](NC(=O)[C@H](CC(C)C)NC(=O)CNC(=O)[C@@H](NC(=O)[C@@H](NC(=O)[C@H](CCC(N)=O)NC(=O)[C@H](CCC(N)=O)NC(=O)[C@@H]1CCCN1C(=O)[C@H](CCCCN)NC(=O)[C@@H]1CCCN1C(=O)[C@@H](N)CCCN=C(N)N)[C@H](C)c1ccccc1)[C@H](C)c1ccccc1)C(N)=O` came in with a half-maximal effective concentration (EC50) of 10 nM. This EC50 lies about 19-fold higher than the previous one.

For `CSCC[C@H](NC(=O)[C@H](CC(C)C)NC(=O)CNC(=O)[C@@H](NC(=O)[C@@H](NC(=O)[C@H](CCC(N)=O)NC(=O)[C@H](CCC(N)=O)NC(=O)[C@@H]1CCCN1C(=O)[C@H](CCCCN)NC(=O)[C@@H]1CCCN1C(=O)[C@@H](N)CCCN=C(N)N)[C@@H](C)c1ccccc1)[C@@H](C)c1ccccc1)C(N)=O`, the EC50 stood at 0.18 nM.

`CSCC[C@H](NC(=O)[C@H](CC(C)C)NC(=O)CNC(=O)[C@@H](NC(=O)[C@H](Cc1ccccc1)NC(=O)[C@H](CCC(N)=O)NC(=O)[C@H](CCC(N)=O)NC(=O)[C@@H]1CCCN1C(=O)[C@H](CCCCN)NC(=O)[C@@H]1CCCN1C(=O)[C@@H](N)CCCN=C(N)N)[C@@H](C)c1ccccc1)C(N)=O` returned an EC50 of 0.13 nM.

Usually EC50 stands for the concentration giving half of the maximal effect. Higher therefore signals a less potent agent.
